Results reported in patent EP0335662B1, “Peptides” (BRITISH TECHNOLOGY GROUP LIMITED, priority 1988, dated 1989).
Values joined by “and” are separate entries in the source; they are usually repeats but may differ in a detail not shown here. Identical values can stand only once. Like-named read-outs stand apart in the source and are kept apart here. Non-standard residues stand in square brackets, D forms with d. Residues, ends and D or L forms follow the SMILES beside them.

Legend:
[1] = tested on: hyperalgesia evoked by IL-1β; test: Modified Randall-Sellito rat paw pressure test: hyperalgesia evoked by IL-1β; type: in vivo, rats; settings: 100 »g ipl, 30 minutes before 0.05U IL-1β ipl or ip
Description: (§1) Hyperalgesia was evaluated by the application of a constant pressure of 20 mmHg to the hind paws of rats (Wistar strain, male, weight 135 - 170g) which was discontinued when animals presented a characteristic freezing reaction (reaction time). The intensity of hyperalgesia was quantified as the variation of the reaction time (Δ reaction time, sec) obtained by subtracting the value measured 1,2,3 or 4h after administration of the hyperalgesic agent from the pre-injection control reaction time (zero time). The experimenter was unaware of the group treatments.
(§2) There were 5 animals per treatment group. […]

[2] = tested on: human blood mononuclear cells (MNC); test: PGE₂ release by blood mononuclear cells, radioimmunoassay; type: cell-based; settings: in words
Description: The effect of K(D)PT and indomethacin on PGE₂ release by human blood mononuclear cells (MNC) was investigated. The MNC were isolated from buffy coat residues by density gradient centrifugation (Ficoll-hypaque, Sigma) and resuspended in RPMI 1640 culture medium (Gibco) + 2% inactivated foetal calf serum (Imperial Laboratories). […] Values are means of quadruplicates ± s.e.m.'s. PGE₂ concentrations were measured by radioimmunoassay (NEN Research Products).

[3] = tested on: gastric lesions; test: Gastric lesions after treatment; type: in vivo, mice; settings: 32 mg/kg
[4] = tested on: hyperalgesia evoked by PGE₂; test: Rat paw pressure test: hyperalgesia evoked by PGE₂; parameters: species or system rats; settings: in vivo
Description: as §1, §2

[5] = tested on: hyperalgesia evoked by DbcAMP; test: Rat paw pressure test: hyperalgesia evoked by DbcAMP; parameters: species or system rats; settings: in vivo
Description: as §1
The effect of the tripeptides KPV and K(D)PV on hyperalgesia evoked in rats by DbcAMP was studied. Treatments were given ip, 1h before DbcAMP was injected into the paw (ipl). There were 5 animals per treatment group. Delta reaction times were measured 3h after DbcAMP. […] The control was DbcAMP (100»g/paw). […]

[6] = tested on: hot plate (55°C) reaction time; test: Standard hot plate (55°C) test; settings: in vivo
Description: A standard hot plate (55°C) test was carried out. […]

[7] = tested on: hyperalgesia evoked by IL-1β; settings: cited from earlier work
[8] = tested on: hot-plate test; settings: injected into the brain; Herman et al 1985; cited from earlier work
[9] = tested on: mice; settings: administered to mice; Goerne et al 1982; cited from earlier work

Compound: COc1ccc2c(c1)c(CC(=O)O)c(C)n2C(=O)c1ccc(Cl)cc1 [Indomethacin, indomethacin]
- effect of pretreatment on hyperalgesic response, contralateral paws (CL) [1]: no effect
- effect of pretreatment on hyperalgesic response, treated paws (I) [1]: markedly attenuated
- effect on production of PGE₂ by MNC [2]: abolished PGE₂ production

Compound: C[C@@H](O)[C@H](NC(=O)[C@H]1CCCN1C(=O)[C@@H](N)CCCCN)C(=O)O [K(D)PT, Lys-D-Pro-Thr] (H-Lys-[dP]-Thr-OH)
- gastric lesions [3]: No lesions were observed

Compound: CN1CC[C@]23c4c5ccc(O)c4O[C@H]2[C@@H](O)C=C[C@H]3[C@H]1C5 [Morphine, morphine]
- change of delta reaction time vs control (= 100%) [4]: -63.7%
- delta reaction time [4]: 6.1 ± 0.8 s
- antagonism of hyperalgesia evoked by DbcAMP [5]: effective antagonist
- change of delta reaction time vs control (= 100%) [5]: -64.0%
- delta reaction time [5]: 6.2 ± 0.4 s
- reaction time difference, hot plate (55°C) [6]: 3.52 s and 5.55 s
- antagonism of on-going hyperalgesia ([7]; rat, in vivo): able to antagonise on-going hyperalgesia

Compound: Cc1c(N(C)CS(=O)(=O)O)c(=O)n(-c2ccccc2)n1C [dipyrone]
- antagonism of on-going hyperalgesia ([7]; general statement on known analgesics, no data): able to antagonise on-going hyperalgesia

Compound: Lys-Pro
- antinociceptive action in a hot-plate test [8]: elicited antinociceptive action
- hyperalgesia on administration [9]: evoke hyperalgesia

Compound: Arg-Pro
- hyperalgesia on administration [9]: evoke hyperalgesia
